pIC50: −log10 of the molar value.
What was measured:
Nav1.5 (INa) = biological target: T1, Nav1.5 (INa) (Homo sapiens, UniProt Q14524); experiment: cell-based
T1 construct: gene SCN5A

Cav1.2 (ICa, ICaL) = biological target: T2, Cav1.2 (ICa, ICaL) (Homo sapiens, UniProt Q13936); experiment: cell-based
T2 construct: gene CACNA1C
T2 sequence (Q13936 whole entry): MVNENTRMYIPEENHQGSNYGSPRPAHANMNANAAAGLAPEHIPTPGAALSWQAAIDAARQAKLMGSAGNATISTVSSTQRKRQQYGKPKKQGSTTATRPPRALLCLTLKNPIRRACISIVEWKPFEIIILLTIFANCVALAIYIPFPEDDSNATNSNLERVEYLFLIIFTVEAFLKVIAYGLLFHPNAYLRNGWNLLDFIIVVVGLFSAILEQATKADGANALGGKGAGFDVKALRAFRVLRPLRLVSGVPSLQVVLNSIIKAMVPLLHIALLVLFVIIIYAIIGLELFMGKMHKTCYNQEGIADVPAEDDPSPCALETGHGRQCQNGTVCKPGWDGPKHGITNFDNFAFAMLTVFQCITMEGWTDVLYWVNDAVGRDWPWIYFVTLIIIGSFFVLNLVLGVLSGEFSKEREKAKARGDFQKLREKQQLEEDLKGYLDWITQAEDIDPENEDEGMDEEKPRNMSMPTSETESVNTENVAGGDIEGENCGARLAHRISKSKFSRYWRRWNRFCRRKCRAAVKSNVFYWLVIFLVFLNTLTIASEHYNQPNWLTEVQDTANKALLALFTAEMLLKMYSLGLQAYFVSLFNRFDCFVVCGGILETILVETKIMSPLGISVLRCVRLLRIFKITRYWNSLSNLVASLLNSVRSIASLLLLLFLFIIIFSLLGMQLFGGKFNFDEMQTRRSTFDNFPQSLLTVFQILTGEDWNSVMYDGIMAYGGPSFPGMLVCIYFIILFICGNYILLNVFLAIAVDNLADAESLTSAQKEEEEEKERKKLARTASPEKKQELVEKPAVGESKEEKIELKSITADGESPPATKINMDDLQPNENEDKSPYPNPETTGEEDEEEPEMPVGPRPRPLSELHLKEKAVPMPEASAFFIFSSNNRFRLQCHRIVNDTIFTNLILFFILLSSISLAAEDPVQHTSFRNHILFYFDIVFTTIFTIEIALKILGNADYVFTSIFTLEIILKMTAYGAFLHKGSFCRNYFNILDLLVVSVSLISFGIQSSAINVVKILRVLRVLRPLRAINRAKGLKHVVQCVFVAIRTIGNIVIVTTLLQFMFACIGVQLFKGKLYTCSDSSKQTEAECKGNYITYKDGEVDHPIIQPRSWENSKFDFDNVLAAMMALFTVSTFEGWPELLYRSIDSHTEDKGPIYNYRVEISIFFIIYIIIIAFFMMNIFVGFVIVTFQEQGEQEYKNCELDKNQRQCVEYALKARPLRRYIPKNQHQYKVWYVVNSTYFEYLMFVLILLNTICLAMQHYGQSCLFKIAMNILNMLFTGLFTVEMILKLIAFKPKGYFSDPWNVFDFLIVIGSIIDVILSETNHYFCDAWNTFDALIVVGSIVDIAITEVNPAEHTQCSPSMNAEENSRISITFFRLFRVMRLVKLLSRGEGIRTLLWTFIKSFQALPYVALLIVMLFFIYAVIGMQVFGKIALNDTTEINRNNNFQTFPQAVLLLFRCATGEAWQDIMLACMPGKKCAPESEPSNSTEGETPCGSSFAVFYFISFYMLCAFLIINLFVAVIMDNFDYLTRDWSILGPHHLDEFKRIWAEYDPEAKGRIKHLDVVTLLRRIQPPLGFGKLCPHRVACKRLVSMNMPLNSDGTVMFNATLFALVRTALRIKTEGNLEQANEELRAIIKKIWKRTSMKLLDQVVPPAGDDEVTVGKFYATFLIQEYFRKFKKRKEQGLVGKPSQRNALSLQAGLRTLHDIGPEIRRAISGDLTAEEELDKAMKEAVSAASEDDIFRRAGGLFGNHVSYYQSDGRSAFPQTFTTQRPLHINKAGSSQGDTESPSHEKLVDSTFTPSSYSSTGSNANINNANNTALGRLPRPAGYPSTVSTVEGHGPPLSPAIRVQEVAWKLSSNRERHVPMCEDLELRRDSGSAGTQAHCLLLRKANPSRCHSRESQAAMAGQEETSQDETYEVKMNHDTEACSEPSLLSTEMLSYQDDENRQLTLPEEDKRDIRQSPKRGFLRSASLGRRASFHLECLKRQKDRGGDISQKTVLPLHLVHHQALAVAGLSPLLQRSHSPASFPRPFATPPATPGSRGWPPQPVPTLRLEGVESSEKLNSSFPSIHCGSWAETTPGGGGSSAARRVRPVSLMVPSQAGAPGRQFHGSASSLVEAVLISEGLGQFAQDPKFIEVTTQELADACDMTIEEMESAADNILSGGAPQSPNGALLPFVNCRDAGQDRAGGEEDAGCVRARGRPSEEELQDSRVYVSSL

T1 sequence (Q14524 whole entry): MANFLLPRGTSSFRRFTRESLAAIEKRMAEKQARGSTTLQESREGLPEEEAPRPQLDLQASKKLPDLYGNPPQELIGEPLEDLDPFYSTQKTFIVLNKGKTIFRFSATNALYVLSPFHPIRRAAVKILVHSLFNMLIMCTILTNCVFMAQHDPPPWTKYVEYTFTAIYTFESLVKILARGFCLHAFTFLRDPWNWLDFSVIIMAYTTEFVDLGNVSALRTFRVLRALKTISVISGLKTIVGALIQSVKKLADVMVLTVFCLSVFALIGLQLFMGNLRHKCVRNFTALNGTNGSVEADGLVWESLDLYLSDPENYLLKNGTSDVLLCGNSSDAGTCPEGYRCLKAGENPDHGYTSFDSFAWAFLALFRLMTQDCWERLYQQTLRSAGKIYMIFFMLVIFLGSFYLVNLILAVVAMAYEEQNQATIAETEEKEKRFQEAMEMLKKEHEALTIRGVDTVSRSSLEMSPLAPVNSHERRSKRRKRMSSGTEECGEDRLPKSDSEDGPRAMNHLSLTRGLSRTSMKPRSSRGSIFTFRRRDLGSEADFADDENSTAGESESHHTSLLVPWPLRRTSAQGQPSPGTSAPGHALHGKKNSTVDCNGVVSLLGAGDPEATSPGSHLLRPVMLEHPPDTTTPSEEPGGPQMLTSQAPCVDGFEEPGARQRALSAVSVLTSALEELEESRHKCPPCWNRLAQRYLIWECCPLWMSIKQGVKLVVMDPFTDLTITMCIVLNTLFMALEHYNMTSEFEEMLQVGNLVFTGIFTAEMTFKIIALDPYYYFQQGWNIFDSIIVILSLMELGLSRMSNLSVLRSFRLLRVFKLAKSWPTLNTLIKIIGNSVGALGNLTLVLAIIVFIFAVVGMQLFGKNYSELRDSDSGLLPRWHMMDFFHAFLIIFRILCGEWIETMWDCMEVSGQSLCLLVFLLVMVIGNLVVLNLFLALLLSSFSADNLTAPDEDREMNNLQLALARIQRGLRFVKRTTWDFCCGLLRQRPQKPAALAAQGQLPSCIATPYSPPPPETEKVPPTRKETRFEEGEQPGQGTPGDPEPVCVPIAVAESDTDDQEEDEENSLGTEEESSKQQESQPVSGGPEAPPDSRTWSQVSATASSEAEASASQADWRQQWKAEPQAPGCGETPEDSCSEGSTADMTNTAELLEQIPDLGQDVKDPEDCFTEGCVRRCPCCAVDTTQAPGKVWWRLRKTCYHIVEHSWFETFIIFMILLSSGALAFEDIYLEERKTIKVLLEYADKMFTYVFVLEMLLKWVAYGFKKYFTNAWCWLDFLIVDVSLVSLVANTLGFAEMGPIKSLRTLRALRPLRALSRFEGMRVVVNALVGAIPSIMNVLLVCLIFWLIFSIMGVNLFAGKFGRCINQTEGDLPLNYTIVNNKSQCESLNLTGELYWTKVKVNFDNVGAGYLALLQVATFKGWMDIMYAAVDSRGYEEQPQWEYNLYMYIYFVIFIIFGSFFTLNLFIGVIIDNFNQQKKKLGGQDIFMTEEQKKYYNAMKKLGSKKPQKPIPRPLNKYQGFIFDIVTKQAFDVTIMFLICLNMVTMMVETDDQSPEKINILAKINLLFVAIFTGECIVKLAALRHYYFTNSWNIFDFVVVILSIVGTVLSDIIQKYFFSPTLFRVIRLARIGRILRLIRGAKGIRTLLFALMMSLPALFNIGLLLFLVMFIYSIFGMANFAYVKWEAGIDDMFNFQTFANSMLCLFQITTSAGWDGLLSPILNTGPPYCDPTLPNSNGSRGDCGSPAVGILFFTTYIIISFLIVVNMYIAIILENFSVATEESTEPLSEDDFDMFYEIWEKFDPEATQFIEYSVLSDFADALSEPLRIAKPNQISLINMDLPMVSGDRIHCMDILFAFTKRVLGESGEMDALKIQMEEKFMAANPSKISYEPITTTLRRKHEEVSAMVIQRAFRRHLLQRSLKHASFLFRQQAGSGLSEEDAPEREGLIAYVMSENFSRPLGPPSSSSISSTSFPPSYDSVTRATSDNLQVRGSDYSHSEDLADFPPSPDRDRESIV

`CN(C)C(=O)C(CCN1CCC(O)(c2ccc(Cl)cc2)CC1)(c1ccccc1)c1ccccc1` [Loperamide] was tested, and the pIC50 (Nav1.5 (INa)) was 6.28 and the pIC50 (Cav1.2 (ICa, ICaL)) was 5.39.
